Data from patent US10940139B2, “Compounds that interact with the Ras superfamily for the treatment of cancers, inflammatory diseases, rasopathies, and fibrotic disease” (Shy Therapeutics LLC, priority 2017, dated 2021).
Where two headings read alike, the source gives them in different places.

How the values were obtained:
Assay in all cases: Ras GTP binding domain inhibition assay (labeled GTP)
KRas G12D mutant protein = KRas G12D mutant protein (Homo sapiens (Human), UniProt P01116, G12D)
KRas wild type = KRas wild type (Homo sapiens (Human), UniProt P01116)
KRas wild type, sequence (P01116-2 other isoform, or with tags, fused parts or gaps): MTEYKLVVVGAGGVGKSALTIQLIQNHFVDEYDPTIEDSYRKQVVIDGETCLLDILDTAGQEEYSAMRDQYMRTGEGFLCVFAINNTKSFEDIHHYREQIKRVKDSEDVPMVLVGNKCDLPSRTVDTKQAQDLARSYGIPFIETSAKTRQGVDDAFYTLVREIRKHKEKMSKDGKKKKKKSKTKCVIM
Method in brief: (§1)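 Ni-plate capture of His-KRas (3-10 μg/ml, o/n, 4° C); Tris pH 7.5/MgCl2/DTT buffer, 1% DMSO. Cpd 20 μM or titration, 3 h RT. Cy3/Cy5-GTP 45 min RT, wash, fluorescence of bound GTP.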

[1] = target: KRas G12D/Q61H double mutant (Homo sapiens (Human), UniProt P01116, G12D/Q61H)
KRas G12D/Q61H double mutant, sequence (P01116-2 other isoform, or with tags, fused parts or gaps G12D/Q61H): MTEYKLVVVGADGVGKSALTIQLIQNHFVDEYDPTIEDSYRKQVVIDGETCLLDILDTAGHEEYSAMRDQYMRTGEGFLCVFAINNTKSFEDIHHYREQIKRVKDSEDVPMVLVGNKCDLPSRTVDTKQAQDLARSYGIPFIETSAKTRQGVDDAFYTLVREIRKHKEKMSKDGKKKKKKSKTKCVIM
Method in brief: as §1

KRas G12C mutant = KRas G12C mutant (Homo sapiens (Human), UniProt P01116, G12C)
KRas G12C mutant, sequence (P01116-2 other isoform, or with tags, fused parts or gaps G12C): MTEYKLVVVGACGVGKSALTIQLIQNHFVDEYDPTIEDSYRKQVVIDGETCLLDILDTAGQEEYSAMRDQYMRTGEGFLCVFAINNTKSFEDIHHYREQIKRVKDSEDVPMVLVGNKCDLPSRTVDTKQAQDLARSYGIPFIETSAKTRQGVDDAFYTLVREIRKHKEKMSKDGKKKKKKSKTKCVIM
Method in brief: as §1

[2] = 20 μM compound, read-out: % Inhibition at 20 μM KRas G12D
[3] = 20 μM compound, read-out: % Inhibition at 20 μM KRas wild type
[4] = 20 μM compound, read-out: % Inhibition at 20 μM KRas G12D Q61H
[5] = 20 μM compound, read-out: % Inhibition at 20 μM KRas G12C
[6] = 20 μM, read-out: KRas G12D % Inh.
[7] = 20 μM, read-out: KRas wild type, % Inh.
[8] = 20 μM, read-out: KRas G12D Q61H % Inh.
[9] = 20 μM, read-out: KRas G12C % Inh.
[10] = 20 μM compound, KRas G12D, read-out: % Inhibition at 20 μM of K-Ras mutant and wild-type protein, KRas G12D
[11] = 20 μM compound, KRas wild type, read-out: % Inhibition at 20 μM of K-Ras mutant and wild-type protein, KRas wild type
[12] = 20 μM compound, KRas G12C, read-out: % Inhibition at 20 μM of K-Ras mutant and wild-type protein, KRas G12C

KRas G12D mutant protein, sequence (P01116-2 other isoform, or with tags, fused parts or gaps G12D): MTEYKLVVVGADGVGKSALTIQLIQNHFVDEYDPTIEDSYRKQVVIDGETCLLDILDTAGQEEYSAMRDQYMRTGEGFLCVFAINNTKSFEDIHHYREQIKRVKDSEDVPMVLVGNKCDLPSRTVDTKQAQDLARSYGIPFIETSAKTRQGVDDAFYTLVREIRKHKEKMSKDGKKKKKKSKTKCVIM

Compound	inhibition at 20 µM (KRas G12D mutant protein; [10])	inhibition at 20 µM (KRas wild type; [11])	inhibition at 20 µM (KRas G12C mutant; [12])	further results
O=C(OCCc1cccnc1)N1CCCc2c(O)nc(-c3ccccn3)nc21				inhibition at 20 µM (KRas G12D mutant protein; [2]): 51 to 75%; inhibition at 20 µM (KRas wild type; [3]): 25 to 50%; inhibition at 20 µM [1, 4]: 51 to 75%; inhibition at 20 µM (KRas G12C mutant; [5]): 51 to 75%
O=C(c1csc2c(O)nc(-c3ccccn3)nc12)N1CCN(c2ccccc2O)CC1				inhibition at 20 µM (KRas G12D mutant protein; [2]): 25 to 50%; inhibition at 20 µM (KRas wild type; [3]): 1 to 25%; inhibition at 20 µM [1, 4]: 25 to 50%; inhibition at 20 µM (KRas G12C mutant; [5]): 25 to 50%
O=C(c1csc2c(O)nc(-c3ccccn3)nc12)N1CCOC(c2ccccc2F)C1 (stereo not shown)				inhibition at 20 µM (KRas G12D mutant protein; [2]): 51 to 75%; inhibition at 20 µM (KRas wild type; [3]): 76 to 100%; inhibition at 20 µM [1, 4]: 25 to 50%; inhibition at 20 µM (KRas G12C mutant; [5]): 25 to 50%
COc1ccc(CCNC(=O)c2csc3nc(-c4ccccn4)nc(N4CCN(C)CC4)c23)cn1				inhibition at 20 µM (KRas G12D mutant protein; [2]): 25 to 50%; inhibition at 20 µM (KRas wild type; [3]): 25 to 50%; inhibition at 20 µM [1, 4]: 25 to 50%; inhibition at 20 µM (KRas G12C mutant; [5]): 25 to 50%
Cc1cnc(-c2ccccn2)nc1NC(=O)COCc1ccncc1				inhibition at 20 µM (KRas G12D mutant protein; [2]): 51 to 75%; inhibition at 20 µM (KRas wild type; [3]): 51 to 75%; inhibition at 20 µM [1, 4]: 51 to 75%; inhibition at 20 µM (KRas G12C mutant; [5]): 51 to 75%
O=C(Nc1nnc(-c2ccccn2)[nH]1)c1ccn(-c2ccccc2)n1 [drawing 2464]				inhibition at 20 µM (KRas G12D mutant protein; [6]): 76 to 100%; inhibition at 20 µM (KRas wild type; [7]): 51 to 75%; inhibition at 20 µM [1, 8]: 76 to 100%; inhibition at 20 µM (KRas G12C mutant; [9]): 51 to 75%
COc1ccc(CCC(=O)Nc2nnc(-c3ccccn3)[nH]2)cc1 [drawing 2469]				inhibition at 20 µM (KRas G12D mutant protein; [6]): 25 to 50%; inhibition at 20 µM (KRas wild type; [7]): 25 to 50%; inhibition at 20 µM [1, 8]: 51 to 75%; inhibition at 20 µM (KRas G12C mutant; [9]): 25 to 50%
O=C(Nc1nnc(-c2ccccn2)[nH]1)c1ccc2ccccc2n1 [drawing 2472]				inhibition at 20 µM (KRas G12D mutant protein; [6]): 76 to 100%; inhibition at 20 µM (KRas wild type; [7]): 51 to 75%; inhibition at 20 µM [1, 8]: 76 to 100%; inhibition at 20 µM (KRas G12C mutant; [9]): 25 to 50%
CN(Cc1nnc(-c2ccccc2Cl)o1)Cc1ccccc1C(F)(F)F [drawing 2482]				inhibition at 20 µM (KRas G12D mutant protein; [6]): 25 to 50%; inhibition at 20 µM (KRas wild type; [7]): 1 to 25%; inhibition at 20 µM [1, 8]: 51 to 75%; inhibition at 20 µM (KRas G12C mutant; [9]): 1 to 25%
O=C(Nc1nnc(-c2ccccn2)[nH]1)C1CC(=O)N(Cc2cccc(C(F)(F)F)c2)C1 (stereo not shown) [drawing 2547]				inhibition at 20 µM (KRas G12D mutant protein; [6]): 51 to 75%; inhibition at 20 µM (KRas wild type; [7]): 25 to 50%; inhibition at 20 µM [1, 8]: 51 to 75%; inhibition at 20 µM (KRas G12C mutant; [9]): 1 to 25%
O=C(Nc1nnc(-c2ccccn2)[nH]1)c1ccn(-c2cccc(Cl)c2)n1 [drawing 2559]				inhibition at 20 µM (KRas G12D mutant protein; [6]): 76 to 100%; inhibition at 20 µM (KRas wild type; [7]): 25 to 50%; inhibition at 20 µM [1, 8]: 76 to 100%; inhibition at 20 µM (KRas G12C mutant; [9]): 1 to 25%
CS(=O)(=O)N1CCCc2cc(C(=O)Nc3nnc(-c4ccccn4)[nH]3)ccc21 [drawing 2561]				inhibition at 20 µM (KRas G12D mutant protein; [6]): 51 to 75%; inhibition at 20 µM (KRas wild type; [7]): 51 to 75%; inhibition at 20 µM [1, 8]: 76 to 100%; inhibition at 20 µM (KRas G12C mutant; [9]): 25 to 50%
COc1ccc(OCc2nc(CNCCc3nnc4n3CCC4)cs2)cc1 [drawing 2565]				inhibition at 20 µM (KRas G12D mutant protein; [6]): 51 to 75%; inhibition at 20 µM (KRas wild type; [7]): 1 to 25%; inhibition at 20 µM [1, 8]: 51 to 75%; inhibition at 20 µM (KRas G12C mutant; [9]): 25 to 50%
O=C(Nc1nc(-c2ccccn2)cs1)c1cccc(F)c1 [drawing 2567]				inhibition at 20 µM (KRas G12D mutant protein; [6]): 51 to 75%; inhibition at 20 µM (KRas wild type; [7]): 51 to 75%; inhibition at 20 µM [1, 8]: 51 to 75%; inhibition at 20 µM (KRas G12C mutant; [9]): 25 to 50%
Cc1cc(C(=O)Nc2nc(-c3ccccn3)cs2)no1 [drawing 2568]				inhibition at 20 µM (KRas G12D mutant protein; [6]): 25 to 50%; inhibition at 20 µM (KRas wild type; [7]): 25 to 50%; inhibition at 20 µM [1, 8]: 76 to 100%; inhibition at 20 µM (KRas G12C mutant; [9]): 25 to 50%
CS(=O)(=O)Cc1ccc(C(=O)Nc2nc(-c3ccccn3)cs2)cc1 [drawing 2572]				inhibition at 20 µM (KRas G12D mutant protein; [6]): 1 to 25%; inhibition at 20 µM (KRas wild type; [7]): 1 to 25%; inhibition at 20 µM [1, 8]: 51 to 75%; inhibition at 20 µM (KRas G12C mutant; [9]): 25 to 50%
Cn1ccnc1-c1nc(O)c2sc(-c3ccccc3)c(-c3cccc(C(F)(F)F)c3)c2n1 [drawing 3592]	0%	1 to 25%	0%	
Cn1ccnc1-c1nc(O)c2sc(-c3ccccc3)c(-c3ccccc3Cl)c2n1 [drawing 3595]	51 to 75%	25 to 50%	51 to 75%	
Cn1ccnc1-c1nc(O)c2scc(-c3cccc(C(F)(F)F)c3)c2n1 [drawing 3598]	25 to 50%	25 to 50%	1 to 25%	

Compound	inhibition at 20 µM (KRas G12D mutant protein; [10])	inhibition at 20 µM (KRas wild type; [11])	inhibition at 20 µM (KRas G12C mutant; [12])	further results
Cc1sc2c(O)nc(-c3nccn3C)nc2c1-c1cccc(C(F)(F)F)c1 [drawing 3599]	1 to 25%	1 to 25%	1 to 25%	
Cc1sc2c(O)nc(-c3nccn3C)nc2c1-c1ccc(OCC(C)C)nc1 [drawing 3600]	1 to 25%	1 to 25%	1 to 25%	
COc1ccc(-c2c(C)sc3c(O)nc(-c4nccn4C)nc23)cn1 [drawing 3601]	1 to 25%	1 to 25%	1 to 25%	
Cn1ccnc1-c1nc(O)c2scc(-c3cccc(OC(F)(F)F)c3)c2n1 [drawing 3603]	51 to 75%	25 to 50%	1 to 25%	
Cn1cnc(-c2nc(O)c3scc(-c4cccc(C(F)(F)F)c4)c3n2)c1 [drawing 3604]	25 to 50%	51 to 75%	25 to 50%	
CC(C)COc1ccc(-c2csc3c(O)nc(-c4cn(C)cn4)nc23)cn1 [drawing 3605]	1 to 25%	25 to 50%	25 to 50%	
Cn1cnc(-c2nc(O)c3scc(-c4cccc(OC(F)(F)F)c4)c3n2)c1 [drawing 3606]	25 to 50%	25 to 50%	1 to 25%	
Oc1nc(-c2ccncn2)nc2c(-c3cccc(C(F)(F)F)c3)csc12 [drawing 3607]	1 to 25%	25 to 50%	25 to 50%	
Oc1nc(-c2ncccn2)nc2c(-c3cccc(C(F)(F)F)c3)csc12 [drawing 3608]	25 to 50%	51 to 75%	25 to 50%	
CC(C)Oc1ccc(-c2csc3c(O)nc(-c4nccn4C)nc23)cc1F [drawing 3609]	25 to 50%	25 to 50%	25 to 50%	
Cc1sc2c(O)nc(-c3nccn3C)nc2c1-c1ccc(OC(C)C)c(F)c1 [drawing 3610]	51 to 75%	25 to 50%	1 to 25%	
CC(C)Oc1ccc(-c2c(-c3ccccc3)sc3c(O)nc(-c4nccn4C)nc23)cc1F [drawing 3611]	25 to 50%	25 to 50%	1 to 25%	
CC(C)COc1ccc(-c2csc3c(O)nc(-c4nccn4C)nc23)cn1 [drawing 3612]	76 to 100%	25 to 50%	25 to 50%	
COc1ccc(-c2csc3c(O)nc(-c4nccn4C)nc23)cn1 [drawing 3613]	51 to 75%	25 to 50%	25 to 50%	
Cn1ccnc1-c1nc(O)c2scc(-c3ccc(F)cc3F)c2n1 [drawing 3616]	25 to 50%	1 to 25%	1 to 25%	
Cn1ccnc1-c1nc(O)c2scc(-c3cccc(Cl)c3)c2n1 [drawing 3617]	25 to 50%	25 to 50%	25 to 50%	
COC(C)(C)c1ccc(-c2csc3c(O)nc(-c4nccn4C)nc23)cc1 [drawing 3618]	25 to 50%	25 to 50%	0%	
Cn1ccnc1-c1nc(O)c2scc(-c3ccc(C(C)(C)C)cc3)c2n1 [drawing 3619]	1 to 25%	1 to 25%	25 to 50%	
Cc1sc2c(O)nc(-c3nccn3C)nc2c1-c1ccc(F)cc1F [drawing 3621]	1 to 25%	1 to 25%	1 to 25%	

Further lines, with some results ahead:

inhibition at 20 µM (KRas G12D mutant protein; [10])	inhibition at 20 µM (KRas wild type; [11])	inhibition at 20 µM (KRas G12C mutant; [12])	Compound	further results
1 to 25%	1 to 25%	1 to 25%	COc1ccc(-c2c(-c3ccccc3)sc3c(O)nc(-c4nccn4C)nc23)cn1 [drawing 3593]	
25 to 50%	25 to 50%	25 to 50%	Cc1sc2c(O)nc(-c3nccn3C)nc2c1-c1ccccc1 [drawing 3594]	
51 to 75%	51 to 75%	25 to 50%	COCCNc1nc(-c2nccn2C)nc2sc(-c3ccccc3)c(-c3ccncc3)c12 [drawing 3596]	
25 to 50%	1 to 25%	1 to 25%	COCCNc1nc(-c2nccn2C)nc2sc(-c3ccc(OC)cc3)c(-c3ccccc3)c12 [drawing 3597]	
51 to 75%	25 to 50%	25 to 50%	Cn1ccnc1-c1nc(O)c2scc(-c3ccccc3)c2n1 [drawing 3614]	
25 to 50%	25 to 50%	25 to 50%	Cn1ccnc1-c1nc(O)c2scc(-c3ccccc3Cl)c2n1 [drawing 3615]	
1 to 25%	0%	1 to 25%	COCCNc1nc(-c2ccccn2)nc2sc(-c3ccccc3)c(-c3ccccn3)c12 [drawing 3620]	
25 to 50%	51 to 75%	25 to 50%	COCCNc1nc(-c2nccn2C)nc2sc(-c3ccccc3)c(-c3ccccn3)c12 [drawing 3622]	
